Data reported in patent US7332492B2, “Amino substituted dibenzothiophene derivatives for the treatment of disorders mediated by NP Y5 receptor” (AstraZeneca AB, priority 2000, dated 2008).

Target: T1, human neuropeptide Y5 receptor (Homo sapiens, UniProt Q15761)
T1 construct: starting at base 56 through to base 1393, to express the protein 10 amino acid residues shorter at the amino terminal end; made in house; host or cells: High 5 insect cells (baculovirus, pFASTBAC1 / Bac-to-Bac); membrane preparation
T1 sequence (Q15761 1-445): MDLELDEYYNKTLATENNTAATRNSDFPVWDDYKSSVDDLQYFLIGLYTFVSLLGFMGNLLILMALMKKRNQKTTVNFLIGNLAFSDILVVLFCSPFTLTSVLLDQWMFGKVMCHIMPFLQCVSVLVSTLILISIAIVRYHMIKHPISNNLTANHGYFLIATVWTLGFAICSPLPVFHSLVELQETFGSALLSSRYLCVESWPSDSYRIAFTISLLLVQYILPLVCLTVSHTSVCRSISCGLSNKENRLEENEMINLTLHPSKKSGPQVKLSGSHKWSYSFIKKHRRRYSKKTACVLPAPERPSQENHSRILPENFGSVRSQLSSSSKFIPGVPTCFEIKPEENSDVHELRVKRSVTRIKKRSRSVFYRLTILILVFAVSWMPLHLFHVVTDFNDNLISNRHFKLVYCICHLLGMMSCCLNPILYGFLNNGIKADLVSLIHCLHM
Assay: neuropeptide Y5 receptor binding assay (125I PYY displacement)
Conditions: 125I PYY binding, membranes of High 5 insect cells expressing human NPY5 receptor
Experimental: The activity of compounds of the invention was measured in a neuropeptide Y5 receptor binding assay as follows. Compounds were also tested in binding assays for the neuropeptide Y1 and neuropeptide Y2 receptors. Activity against these 2 receptors is contraindicated for a neuropeptide Y5 antagonist.
a) Expression of Human Neuropeptide Y5 Receptor in High 5™ Insect Cells.
High 5™ insect cells were obtained from Invitrogen (catalogue No B855-02) and stored in liquid nitrogen. Cells were revived from liquid nitrogen storage and grown at 28° C. in 100 ml ExCell 405 (JRH Biosciences) serum free medium in a 250 ml conical flask (Corning) agitated at 140 rpm in an Innova 4330 orbital shaker (New Brunswick Scientific). Cultures were routinely sub-cultured every 3-4 days.
High 5™ insect cells were transfected with the human NPY5 receptor as follows. PCR primers were designed against the huNPY5 receptor sequence, Genbank Accession Number U56079 [Gerald et. al. (1996) Nature 382, 168-171], but starting at base 56 through to base 1393, to express the protein 10 amino acid residues shorter at the amino terminal end [see Borowsky et. al. (1998) Regulatory Peptides 75-76, 45-53]. These primers were used to amplify the huNPY5 receptor from human placenta genomic DNA by PCR. […]

**Q.** With `CC(CN1CCOCC1)C(=O)Nc1ccc2sc3ccccc3c2c1` (stereo not shown) [Example 16] as the compound, how does the IC50 read?
**A.** 94 nM
